Consider 2 compounds from patent publication US10369123B2, “Perk activator for the treatment of neurodegenerative diseases” (DEUTSCHES ZENTRUM FÜR NEURODEGENERATIVE ERKRANKUNGEN E.V. …, priority 2014, dated 2019).

This experiment concerns LUHMES neurons overexpressing 4R-tau. As to the kind of experiment: ATP assay, LUHMES neurons overexpressing 4R-tau. The class given is cell-based, human. As to conditions: lentiviral 4R-tau overexpression 10 days, co-administration of PERK modulator. How it is done:
Nunc™ Nunclon™ Delta 6-well (for protein and mRNA) or 48-well (for cell assays) plates (Thermo Fisher Scientific, Waltham, Mass., USA) were coated with 100 μg/ml poly-L-lysine (Sigma-Aldrich, St. Louis, Mo., USA) and 5 μg/ml fibronectin (Sigma-Aldrich). LUHMES (Lund Human Mesencephalic) cells, derived from human embryonic ventral mesencephalic cells by conditional immortalization (Tet-off v-myc over-expression) were seeded out in a concentration of 130,000 cells/cm^2 to achieve a confluence of 50%. They were then differentiated for 8 days in a medium of DMEM/F12 (Sigma-Aldrich), 1 μg/ml tetracycline, […] and 490 μg/ml dbcAMP into post-mitotic neurons with a dopaminergic phenotype (Lotharius et al. 2005). […]
Concentrated lentiviral particles were titrated by transducing LUHMES cells with different dilutions at 6 hours after initiating differentiation. The lowest dilution at which at least 90% of cells expressed the transgene (as determined by immunohistochemistry of the cells fixed on day 2 post differentiation) was chosen for subsequent experiments. […]
ATP assays were conducted using the ViaLight™ plus kit by Lonza according to the manufacturer's instructions. Luminescence was read with the FLUOstar Omega (BMG Labtech) platereader. The data was analyzed using the MARS Data Analysis Software (BMG Labtech) and Prism 6.

The structures appear in SMILES notation.

On to `Cn1cc(-c2ccc3c(c2)CCN3C(=O)Cc2cccc(C(F)(F)F)c2)c2c(N)ncnc21` [GSK2606414, reference compound], for which the “4R-specific toxicity in ATP assay” value is listed as “provided protection in the ATP assay, but to a lesser extent”.
For `CCN(CC)CCC(=O)N1N=C(c2c(-c3ccccc3)c3cc(Br)ccc3[nH]c2=O)CC1c1ccc(Br)cc1` (centres unmarked) [CCT020312, 6-bromo-3-[5-(4-bromo-phenyl)-1-(3-diethylamino-propionyl)-4,5-dihydro-1H-pyrazol-3-yl]-4-phenyl-1H-quinolin-2-one], the “4R-specific toxicity in ATP assay” value is “reduced significantly”.
